Assay results reported in patent US20180319766A1, “CO-CRYSTALS OF BENZIMIDAZOLE COMPOUNDS” (FAES FARMA, S.A., priority 2015, published 2018).

Assays:
[1] = Stability of the cocrystal under forced conditions of humidity and temperature (ICH), XRPD; format: physicochemical; settings: 40° C.
Method: […] The solids were analyzed by XRPD every day during the first week and once a week afterwards, to detect possible crystalline transformations.

[2] = Solubility of cocrystals in water at room temperature, relative to bilastine (HPLC); settings: 400 mg of product in 24 ml, result in words, data only in figures
Method: Solubility of cocrystals was determined by stirring the product in water at room temperature (400 mg of product in 24 ml of water, 60 vol.). The product was previously milled in order to reduce the crystal size effect. A sample is collected and filtered using a sintered funnel (n° 3) periodically (30, 60, 180 min and after overnight). The filtered solid was immediately analyzed by XRPD, while the mother liquors are filtered through a 0.22 um filter and the concentration of Bilastine is determined by HPLC area (in some experiments where a high solubility was detected the mother liquor was diluted by a factor 10). This concentration is compared with the Bilastine concentration obtained in the same conditions in order to determine a relative solubility.
HPLC analyses were performed by duplicate on an Agilent 1100 series apparatus with a XBridge C-18 column at room temperature. 25μL sample were injected. The mobile phase (isocratic) was set as following: 52%(Methanol:aqueous octylamine 0.01M pH=7, 65:35)−42% (Acetonitrile:aqueous octylamine 0.01M pH=7, 60:40)

ΔpKa bilastine-coformer = format: physicochemical
[3] = bilastine as zwitterion; cited from earlier work
[4] = pH range 5-8; cited from earlier work

| SMILES | Time the crystalline form is stable under forced conditions (XRPD) ([1]; 70±5% RH) | Time the crystalline form is stable under forced conditions (XRPD) ([1]; 75±5% RH) | further results |
| --- | --- | --- | --- |
| CCOCCn1c(C2CCN(CCc3ccc(C(C)(C)C(=O)O)cc3)CC2)nc2ccccc21.O=C(O)CCCCC(=O)O [AD(I)] | at least 1 weeks |  |  |
| CCOCCn1c(C2CCN(CCc3ccc(C(C)(C)C(=O)O)cc3)CC2)nc2ccccc21.O=C(O)CCCC(=O)O [GL(V)] | at least 4 weeks |  |  |
| CCOCCn1c(C2CCN(CCc3ccc(C(C)(C)C(=O)O)cc3)CC2)nc2ccccc21.Nc1ccc(C(=O)O)cc1 [AB(VII)] |  | at least 1 week |  |
| CC=CC=CC(=O)O.CCOCCn1c(C2CCN(CCc3ccc(C(C)(C)C(=O)O)cc3)CC2)nc2ccccc21.CCOCCn1c(C2CCN(CCc3ccc(C(C)(C)C(=O)O)cc3)CC2)nc2ccccc21 [SO(I)] |  | at least 1 week | Solubility comparison with bilastine BLN(I) [2]: improves greatly the solubility of bilastine |
| O=C(O)C[C@H](O)C(=O)O [L-Malic acid] |  |  | ΔpKa bilastine-coformer (ΔpKa bilastine-coformer): 0.94 |
| CCOCCn1c(C2CCN(CCc3ccc(C(C)(C)C(=O)O)cc3)CC2)nc2ccccc21.CCOCCn1c(C2CCN(CCc3ccc(C(C)(C)C(=O)O)cc3)CC2)nc2ccccc21.O=C(O)CCCCC(=O)O [AD(III)] | at least 1 weeks |  |  |
| CCOCCn1c(C2CCN(CCc3ccc(C(C)(C)C(=O)O)cc3)CC2)nc2ccccc21.CCOCCn1c(C2CCN(CCc3ccc(C(C)(C)C(=O)O)cc3)CC2)nc2ccccc21.O=C(O)CCC(=O)O [SU(VII)] |  | at least 1 week |  |
| CCOCCn1c(C2CCN(CCc3ccc(C(C)(C)C(=O)O)cc3)CC2)nc2ccccc21.CCOCCn1c(C2CCN(CCc3ccc(C(C)(C)C(=O)O)cc3)CC2)nc2ccccc21.Nc1ccc(C(=O)O)cc1 [AB(VIII)] |  | at least 1 week |  |
| CCOCCn1c(C2CCN(CCc3ccc(C(C)(C)C(=O)O)cc3)CC2)nc2ccccc21.O=C(O)CCC(=O)O [SU(VI)] |  | at least 1 week |  |
| CCOCCn1c(C2CCN(CCc3ccc(C(C)(C)C(=O)O)cc3)CC2)nc2ccccc21.CCOCCn1c(C2CCN(CCc3ccc(C(C)(C)C(=O)O)cc3)CC2)nc2ccccc21.O=C(O)CCCC(=O)O [GL(I)] | at least 4 weeks |  |  |
| CCOCCn1c(C2CCN(CCc3ccc(C(C)(C)C(=O)O)cc3)CC2)nc2ccccc21 [bilastine, 2-[4-(2-{4-[1-(2-Ethoxyethyl)-1H-benzimidazol-2-yl]-1-piperidinyl}ethyl)phenyl]-2-methylpropanoic acid] |  |  | pKa of the acid function (carboxylate) [3]: 4.4; pKa of the base function (protonated amine) [3]: 8.8; Solubility [4]: around 500 μg/mL |
